# Laboratory results reported in US20240287136A1, “PHARMACEUTICAL COMPOSITION AND THE USE THEREOF IN THE TREATMENT OF AUTOIMMUNE DISEASES” (Singapore Health Services Pte. Ltd., priority 2016, published 2024).
# Assays:
# [1] = system: patients with early rheumatoid arthritis; test: Phase II trial of mucosal tolerization to SEQ ID NO. 1: clinical outcome; format: in vivo, human
# Experimental: The model employed here is based on the hypothesis that immune tolerization to a T-cell epitope, such as SEQ ID NO. 1 that may be a contributor of inflammation in patients with rheumatoid arthritis, may lead to detectable clinical improvement. A total of 96 patients with early rheumatoid arthritis, who were not allowed on Methotrexate or biologics, were tested with mucosal tolerization to SEQ ID NO. 1. Patients are defined as “responders” if they meet the response criteria at any time during the study. […] SEQ ID NO. […]
# [2] = system: Monocyte-derived, LPS-induced dendritic cells (mDC); test: Marker expression on monocyte-derived, LPS-induced dendritic cells treated in vitro with HCQ; format: cell-based, human
# Experimental: FIG. 6. […] CD4+ sorted cells were co-cultured with the mDC-treated groups for an additional 24 hours.
# (§1) MFI=Mean Fluorescence Index. […] MFI=Mean Fluorescence Index Sorted CD4+ T cells were then co-cultured with mDCs for an additional 24 hours.
# [3] = system: CD4+ sorted cells; test: PD-1 / PDL1 expression on CD4+ T cells co-cultured with HCQ-treated mDC; format: cell-based, human
# Experimental: (§2) FIG. 6. […] CD4+ sorted cells were co-cultured with the mDC-treated groups for an additional 24 hours. The expression of PD-1 (MFI: 187 vs 212, T(x)=26.4, p<0.01) and intracellular PD-1 (MFI: 46 vs 222, T(x) 161, p<0.01) was increased in T cells when co-cultured with HCQ-treated mDC. h.
# as §1
# Monocyte-derived dendritic cells (DCs) were isolated from healthy controls and activated with lipopolysaccharide (LPS). […] HCQ-treated and untreated mature DCs were then co-cultured with CD4+ T cells to assess the potential of these DCs in activating the T cells.
# [4] = system: T cells cocultured with mDC; test: Gene expression of regulatory molecules in T cells co-cultured with mDC+HCQ; format: cell-based, human
# Experimental: as §2
# Data are expressed as 2(−dCT)×100 of GAPDH.
# as §1
smiles,measurement,setting,value
"CCN(CCO)CCCC(C)Nc1ccnc2cc(Cl)ccc12 (stereo not shown) [HCQ, hydroxychloroquine]",effect on the therapeutic activity of SEQ ID NO: 1,[1]; HCQ use preceding SEQ ID NO: 1 administration,synergistic effect
same,clinical control,"[1]; post hoc evaluation of Phase II trial, preceding use of HCQ in combination with SEQ ID NO. 1 treatment",favored clinical control
same,expression of HLA-DR on mDC,[2]; control 100,20.8 MFI
same,expression of CD200 on mDC,[2]; control 264,409 MFI
same,expression of IL-10 in mDC,[2]; control 453,1045 MFI
same,expression of CD86 on mDC,[2]; control 37983,34170 MFI
same,expression of intracellular PD-1 in T cells,"[3]; CD4+ cells co-cultured 24 hours with HCQ-treated mDC, control 46",222 MFI
same,expression of PD-1 in T cells,"[3]; CD4+ cells co-cultured 24 hours with HCQ-treated mDC, control 187",212 MFI
same,expression of PDL1 on CD4+ T cells,[3]; cultured in the presence of HCQ-treated DCs (FIG. 12B),expressed more
same,Gene expression of CTLA-4 in T cells,[4]; without HCQ 1.74,15.06 2(−dCT)×100 of GAPDH
same,Gene expression of FoxP3 in T cells,[4]; without HCQ 3.06,12.27 2(−dCT)×100 of GAPDH
same,Gene expression of IL-10 in T cells,[4]; without HCQ 3.71,7.57 2(−dCT)×100 of GAPDH
same,Gene expression of TGF β in T cells,[4]; without HCQ 15.00,23.85 2(−dCT)×100 of GAPDH
